Data from patent publication US20070197609A1, “SALTS OF INDUCIBLE NITRIC OXIDE SYNTHASE DIMERIZATION INHIBITORS” (KALYPSYS, INC., priority 2005, published 2007).
pEC50: −log10 of the molar value.

Experiments:
[1] = Moisture sorption/desorption analysis for hygroscopicity; type: physicochemical; conditions: for hygroscopicity: moisture sorption/desorption behavior; for initial weight loss upon equilibration: at 5% RH; for total weight gain: at 95% RH
Excerpt: This weight was gradually regained by approximately 75% RH with a total weight gain of approximately 0.64% at 95% RH. Slightly more weight was lost during desorption with litle hysterisis.
The moisture sorption/desorption profiles of Compound 2 hydrochloride, Compound 2 acetate, and compound 2 adipate are presented in Table 7. […] Relative humidity was then increased and weight measurements taken at regular intervals. Change is given as percent of original sample.

[2] = Solubility in selected solvents; type: physicochemical; conditions: thermodynamic from solid
Method: The solubility of Compound 2 acetate was investigated with regard to potential process and formulation solvents. The solubility of Compound 2 acetate was evaluated by preparing saturated solution of Compound 2 in the selected solvents, filtering the samples (0.22 μm), diluting, and determining concentration by external standard HPLC using a rapid analysis assay.

heNOS = target: T1, heNOS (Homo sapiens, UniProt P29474); conditions: DAN assay, HEK293 cells transfected with NOS isoform; cited from earlier work
T1 construct: expressed in transfected cells; host or cells: HEK293
T1 sequence (P29474 2-1203 limits assumed): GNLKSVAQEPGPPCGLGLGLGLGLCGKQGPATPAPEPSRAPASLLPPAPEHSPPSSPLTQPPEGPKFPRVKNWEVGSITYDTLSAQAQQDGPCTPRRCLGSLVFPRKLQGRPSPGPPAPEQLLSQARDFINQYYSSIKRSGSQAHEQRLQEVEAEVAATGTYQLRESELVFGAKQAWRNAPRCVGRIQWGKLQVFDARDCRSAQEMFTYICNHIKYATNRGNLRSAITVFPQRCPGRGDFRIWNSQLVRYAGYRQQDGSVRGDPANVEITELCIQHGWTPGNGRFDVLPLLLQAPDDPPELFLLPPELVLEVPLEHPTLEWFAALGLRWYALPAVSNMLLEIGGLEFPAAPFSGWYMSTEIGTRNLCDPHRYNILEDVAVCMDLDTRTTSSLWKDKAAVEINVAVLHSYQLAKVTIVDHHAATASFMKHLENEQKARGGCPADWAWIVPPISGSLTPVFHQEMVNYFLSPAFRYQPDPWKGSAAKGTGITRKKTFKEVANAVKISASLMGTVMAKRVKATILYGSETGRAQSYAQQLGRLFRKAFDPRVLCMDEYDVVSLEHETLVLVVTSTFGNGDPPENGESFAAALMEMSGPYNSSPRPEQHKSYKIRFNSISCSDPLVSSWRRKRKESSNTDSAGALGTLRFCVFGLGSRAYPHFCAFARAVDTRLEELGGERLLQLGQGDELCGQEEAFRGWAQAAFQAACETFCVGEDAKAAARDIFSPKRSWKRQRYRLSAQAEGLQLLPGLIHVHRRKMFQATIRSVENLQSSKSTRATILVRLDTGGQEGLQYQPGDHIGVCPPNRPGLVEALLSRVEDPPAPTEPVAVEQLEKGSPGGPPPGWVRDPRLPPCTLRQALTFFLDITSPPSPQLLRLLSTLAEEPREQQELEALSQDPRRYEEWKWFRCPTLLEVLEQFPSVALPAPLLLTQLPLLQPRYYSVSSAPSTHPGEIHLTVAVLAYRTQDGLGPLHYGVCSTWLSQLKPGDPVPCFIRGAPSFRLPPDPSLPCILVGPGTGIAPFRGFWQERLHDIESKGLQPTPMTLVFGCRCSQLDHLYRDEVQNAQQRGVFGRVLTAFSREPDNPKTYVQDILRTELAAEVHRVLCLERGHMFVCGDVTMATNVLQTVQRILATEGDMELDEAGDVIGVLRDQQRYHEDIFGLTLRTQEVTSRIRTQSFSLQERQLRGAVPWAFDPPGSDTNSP

hiNOS = target: T2, hiNOS (Homo sapiens, UniProt P35228); conditions: DAN assay, HEK293 cells transfected with NOS isoform; cited from earlier work
T2 construct: expressed in transfected cells; host or cells: HEK293

hnNOS = target: T3, hnNOS (Homo sapiens, UniProt P29475); conditions: DAN assay, HEK293 cells transfected with NOS isoform; cited from earlier work
T3 construct: expressed in transfected cells; host or cells: HEK293

LPS Induced iNOS = conditions: rat; cited from earlier work

T3 sequence (P29475 whole entry, canonical isoform): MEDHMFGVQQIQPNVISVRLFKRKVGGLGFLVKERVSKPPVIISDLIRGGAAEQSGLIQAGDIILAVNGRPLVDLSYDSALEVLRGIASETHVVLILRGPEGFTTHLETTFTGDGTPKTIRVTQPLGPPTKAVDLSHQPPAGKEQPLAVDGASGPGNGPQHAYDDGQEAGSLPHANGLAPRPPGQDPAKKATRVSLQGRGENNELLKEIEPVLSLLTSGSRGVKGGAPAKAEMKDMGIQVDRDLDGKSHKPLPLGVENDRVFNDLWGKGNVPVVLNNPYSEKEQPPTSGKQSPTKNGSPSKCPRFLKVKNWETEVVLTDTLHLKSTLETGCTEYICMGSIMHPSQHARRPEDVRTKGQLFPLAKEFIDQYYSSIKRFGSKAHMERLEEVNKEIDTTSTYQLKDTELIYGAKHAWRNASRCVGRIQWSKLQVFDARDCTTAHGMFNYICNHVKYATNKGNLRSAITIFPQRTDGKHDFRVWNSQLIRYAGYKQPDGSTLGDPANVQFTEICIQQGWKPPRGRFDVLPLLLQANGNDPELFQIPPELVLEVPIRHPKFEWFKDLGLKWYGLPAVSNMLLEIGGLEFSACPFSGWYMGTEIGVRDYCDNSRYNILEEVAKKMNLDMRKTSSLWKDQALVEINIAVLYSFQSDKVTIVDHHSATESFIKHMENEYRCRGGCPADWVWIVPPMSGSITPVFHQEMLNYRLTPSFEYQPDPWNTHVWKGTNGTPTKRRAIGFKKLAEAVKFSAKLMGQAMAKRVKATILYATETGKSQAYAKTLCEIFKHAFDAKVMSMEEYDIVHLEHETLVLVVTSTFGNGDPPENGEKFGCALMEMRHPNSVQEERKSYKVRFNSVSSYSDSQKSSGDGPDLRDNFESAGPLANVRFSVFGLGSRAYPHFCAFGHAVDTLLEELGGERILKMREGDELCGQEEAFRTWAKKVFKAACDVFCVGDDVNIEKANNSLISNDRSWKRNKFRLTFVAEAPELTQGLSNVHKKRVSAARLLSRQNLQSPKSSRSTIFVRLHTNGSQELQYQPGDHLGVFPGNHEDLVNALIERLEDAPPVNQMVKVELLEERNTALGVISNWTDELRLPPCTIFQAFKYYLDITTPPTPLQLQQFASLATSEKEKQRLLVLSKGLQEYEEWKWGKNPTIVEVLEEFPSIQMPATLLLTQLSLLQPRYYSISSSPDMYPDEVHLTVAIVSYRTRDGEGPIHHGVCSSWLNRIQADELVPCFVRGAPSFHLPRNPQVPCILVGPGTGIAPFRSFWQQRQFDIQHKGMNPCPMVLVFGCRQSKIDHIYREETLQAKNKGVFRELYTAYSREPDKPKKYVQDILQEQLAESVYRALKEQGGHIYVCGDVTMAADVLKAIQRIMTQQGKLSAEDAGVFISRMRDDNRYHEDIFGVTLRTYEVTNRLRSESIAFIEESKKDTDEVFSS

Molecule | Weight % Change, Adsorption ([1]; 5 Percent Relative Humidity) [%] | Weight % Change, Desorption ([1]; 5 Percent Relative Humidity) [%] | Weight % Change, Adsorption ([1]; 15 Percent Relative Humidity) [%] | Weight % Change, Desorption ([1]; 15 Percent Relative Humidity) [%] | Weight % Change, Adsorption ([1]; 25 Percent Relative Humidity) [%] | Weight % Change, Desorption ([1]; 25 Percent Relative Humidity) [%] | Weight % Change, Adsorption ([1]; 35 Percent Relative Humidity) [%] | Weight % Change, Desorption ([1]; 35 Percent Relative Humidity) [%] | Weight % Change, Adsorption ([1]; 45 Percent Relative Humidity) [%] | Weight % Change, Desorption ([1]; 45 Percent Relative Humidity) [%] | Weight % Change, Adsorption ([1]; 55 Percent Relative Humidity) [%] | Weight % Change, Desorption ([1]; 55 Percent Relative Humidity) [%] | Weight % Change, Adsorption ([1]; 65 Percent Relative Humidity) [%] | Weight % Change, Desorption ([1]; 65 Percent Relative Humidity) [%] | Weight % Change, Adsorption ([1]; 75 Percent Relative Humidity) [%] | Weight % Change, Desorption ([1]; 75 Percent Relative Humidity) [%] | Weight % Change, Adsorption ([1]; 85 Percent Relative Humidity) [%] | Weight % Change, Desorption ([1]; 85 Percent Relative Humidity) [%] | Weight % Change, Adsorption ([1]; 95 Percent Relative Humidity) [%] | hygroscopicity [1] | further results
CC(=O)O.CN(CCCNCc1ccc2c(c1)OCO2)c1nc(-n2ccnc2)ns1 [Compound 2 acetate, N′-Benzo[1,3]dioxol-5-ylmethyl-N-(3-imidazol-1-yl-[1,2,4]thiadiazol-5-yl)-N-methyl-propane-1,3-diamine acetate salt] | <1 | <1 | <1 | <1 | <1 | <1 | <1 | <1 | <1 | <1 | <1 | <1 | <1 | <1 | <1 | <1 | <3 | <3 | <5 | significantly hygroscopic at high RH | Weight % Change, Desorption ([1]; 95 Percent Relative Humidity): <5%; weight gain ([1]; over the range of 5 to 85% relative humidity (RH)): minimal weight gain; solubility ([2]; acetonitrile, organic solvent or mixture): 2100 µg/mL; solubility ([2]; dichloromethane, organic solvent or mixture): 10000 µg/mL; solubility ([2]; ethanol, organic solvent or mixture): 8500 µg/mL; solubility ([2]; ethyl acetate, organic solvent or mixture): 2000 µg/mL; solubility ([2]; hexanes, organic solvent or mixture): 3 µg/mL; solubility ([2]; isopropanol, organic solvent or mixture): 3700 µg/mL; solubility ([2]; methanol, organic solvent or mixture): 58300 µg/mL; solubility ([2]; propylene glycol, organic solvent or mixture): 36700 µg/mL; solubility ([2]; water): 44600 µg/mL; solubility ([2]; water:ethanol:propylene glycol (40:40:20), aqueous with cosolvent or surfactant or cyclodextrin): 101000 µg/mL
CN(CCCNCc1ccc2c(c1)OCO2)c1nc(-n2ccnc2)ns1.O=C(O)CCCCC(=O)O [Compound 2 adipate, N′-Benzo[1,3]dioxol-5-ylmethyl-N-(3-imidazol-1-yl-[1,2,4]thiadiazol-5-yl)-N-methyl-propane-1,3-diamine adipate salt] | <0 | <0 | <0 | <0 | <0 | <0 | <0 | <0 | <1 | <1 | <1 | <1 | <1 | <1 | <2 | <2 | <3 | <3 | >6 | hygroscopic, especially at elevated humidities | Weight % Change, Desorption ([1]; 95 Percent Relative Humidity): >6%; initial weight loss upon equilibration [1]: less than 1%; total weight gain [1]: over 6%
CN(CCCNCc1ccc2c(c1)OCO2)c1nc(-n2ccnc2)ns1.Cl [Compound 2 hydrochloride, N′-Benzo[1,3]dioxol-5-ylmethyl-N-(3-imidazol-1-yl-[1,2,4]thiadiazol-5-yl)-N-methyl-propane-1,3-diamine hydrochloride salt] | <−1 | <−2 | <−1 | <−1 | <−1 | <−1 | <−1 | <−1 | <−1 | <−1 | <−1 | <0 | <0 | <0 | <0 | <1 | <1 | <2 | <5 | not hygroscopic | Weight % Change, Desorption ([1]; 95 Percent Relative Humidity): <5%; initial weight loss upon equilibration [1]: < 1%; total weight gain [1]: < 5%
CN(CCCNCc1ccc2c(c1)OCO2)c1nc(-n2ccnc2)ns1 [Compound 2, N′-Benzo[1,3]dioxol-5-ylmethyl-N-(3-imidazol-1-yl-[1,2,4]thiadiazol-5-yl)-N-methyl-propane-1,3-diamine] | – | – | – | – | – | – | – | – | – | – | – | – | – | – | – | – | – | – | – | not hygroscopic | pEC50 (heNOS): < 5.00; initial weight loss upon equilibration [1]: approximately 0.16%; total weight gain [1]: approximately 0.64%; pEC50 (hiNOS): > 6.00; pEC50 (hnNOS): < 6.00; LPS Induced iNOS In Vivo, ED50 (LPS Induced iNOS): + ((+), ED50 <10)
Benzo[1,3]dioxol-5-ylmethyl-{2-[2-(2-imidazol-1-yl-6-methyl-pyrimidin-4-yl)-pyrrolidin-1-yl]-ethyl}-amine [Compound 1] | – | – | – | – | – | – | – | – | – | – | – | – | – | – | – | – | – | – | – | – | pEC50 (heNOS): < 5.00; pEC50 (hiNOS): > 6.00; pEC50 (hnNOS): < 6.00; LPS Induced iNOS In Vivo, ED50 (LPS Induced iNOS): + ((+), ED50 <10)
